Activation data for 38 compounds are collected here from patent US8785439B2, “2,5,7-substituted oxazolopyrimidine derivatives” (Sanofi, priority 2010, dated 2014).

The experiment has as its target T1, human Edg-1 receptor (Homo sapiens, UniProt P21453).
T1 construct: FLAG (N); expressed in transfected cells; membrane preparation
Put plainly: GTP-γ-S assay using human Edg-1 receptors (SPA, CHO Flp-In cell membrane preparation). It is filed as biochemical. The following applies: test compound at 10 μM; high control 10 μM S1P regarded as 100% activation; background-corrected; triplicate; read-out: % Activation (Edg-1 receptor activation in percent of the activation by 10 μM S1P). In short, it runs like this: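 Membranes from CHO Flp-In cells stably overexpressing N-terminally FLAG-tagged human Edg-1 were used in a scintillation-proximity GTP-γ-S binding assay to measure receptor activation by compounds.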

T1 sequence (P21453 whole entry): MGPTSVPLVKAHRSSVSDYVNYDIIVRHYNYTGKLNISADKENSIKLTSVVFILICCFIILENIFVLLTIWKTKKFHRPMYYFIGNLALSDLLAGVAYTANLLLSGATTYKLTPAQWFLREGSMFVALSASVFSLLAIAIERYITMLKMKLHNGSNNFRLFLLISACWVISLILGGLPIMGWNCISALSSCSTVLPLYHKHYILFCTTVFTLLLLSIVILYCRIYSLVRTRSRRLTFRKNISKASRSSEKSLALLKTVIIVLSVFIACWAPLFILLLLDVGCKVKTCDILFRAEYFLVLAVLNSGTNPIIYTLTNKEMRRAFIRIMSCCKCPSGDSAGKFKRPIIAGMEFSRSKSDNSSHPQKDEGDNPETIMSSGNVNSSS

`CCCOc1nc(Oc2ccc(Cl)cc2OC)nc2oc(-c3cc(F)ccc3Cl)nc12` [Example 63, 2-(2-chloro-5-fluoro-phenyl)-5-(4-chloro-2-methoxy-phenoxy)-7-propoxy-oxazolo[5,4-d]pyrimidine]: the activation at 10 µM was determined as 80%.
In the case of `CCCOc1nc(Oc2ccccc2F)nc2oc(-c3cc(C)c(O)c(C)c3)nc12` [Example 6, 5-(2-Fluoro-phenoxy)-2-(4-hydroxy-3,5-dimethyl-phenyl)-7-propoxy-oxazolo[5,4-d]pyrimidine] it was 105%; in that of `CCCOc1nc(Oc2ccccc2)nc2oc(-c3cc(F)ccc3Cl)nc12` [Example 78, 2-(2-chloro-5-fluoro-phenyl)-5-phenoxy-7-propoxy-oxazolo[5,4-d]pyrimidine], 70%; in that of `CCCOc1nc(Oc2ccccc2F)nc2oc(-c3cccc(O)c3)nc12` [Example 42, 3-[5-(2-fluoro-phenoxy)-7-propoxy-oxazolo[5,4-d]pyrimidin-2-yl]-phenol], 130%.
In the case of `CCCOc1nc(Oc2ccccc2F)nc2oc(-c3ccc(Cl)c(Cl)c3)nc12` [Example 15, 2-(3,4-dichloro-phenyl)-5-(2-fluoro-phenoxy)-7-propoxy-oxazolo[5,4-d]pyrimidine] it was 95%.
Regarding `CCCOc1nc(OC2CCCCC2)nc2oc(-c3cccc(C)c3)nc12` [Example 2, 5-Cyclohexyloxy-7-propoxy-2-(3-methyl-phenyl)-oxazolo[5,4-d]pyrimidine], the activation at 10 µM worked out at 90%.
In the case of `CCCOc1nc(Oc2ccc(C)cc2Cl)nc2oc(-c3cccc(C)c3)nc12` [Example 90, 5-(2-chloro-4-methyl-phenoxy)-7-propoxy-2-(3-methyl-phenyl)-oxazolo[5,4-d]pyrimidine] it was 67%.
In the case of `CCCOc1nc(Oc2cc(F)cc(C(F)(F)F)c2)nc2oc(-c3cccc(C)c3)nc12` [Example 144, 5-(3-fluoro-5-trifluoromethyl-phenoxy)-7-propoxy-2-(3-methyl-phenyl)-oxazolo[5,4-d]pyrimidine] it was 76%.
In the case of `CCCOc1nc(Oc2ccccc2)nc2oc(-c3ccc(Cl)c(Cl)c3)nc12` [Example 105, 2-(3,4-dichloro-phenyl)-5-phenoxy-7-propoxy-oxazolo[5,4-d]pyrimidine] it was 88%; in that of `CCCOc1nc(Oc2ccc(Cl)c(Cl)c2)nc2oc(-c3cccc(C)c3)nc12` [Example 1, 5-(3,4-Dichloro-phenoxy)-7-propoxy-2-(3-methyl-phenyl)-oxazolo[5,4-d]pyrimidine], 62%.
With `CCCOc1nc(Sc2nc(C)cs2)nc2oc(-c3cc(F)ccc3Cl)nc12` [Example 58, 2-(2-chloro-5-fluoro-phenyl)-5-(4-methyl-thiazol-2-ylsulfanyl)-7-propoxy-oxazolo[5,4-d]pyrimidine], the activation at 10 µM amounted to 102%.
In the case of `CCCOc1nc(Oc2cccc(Cl)c2)nc2oc(-c3cccc(C)c3)nc12` [Example 121, 5-(3-chloro-phenoxy)-7-propoxy-2-(3-methyl-phenyl)-oxazolo[5,4-d]pyrimidine] it was 113%; in that of `CCCOc1nc(Oc2cccnc2)nc2oc(-c3cccc(O)c3)nc12` [Example 43, 3-[7-propoxy-5-(pyridin-3-yloxy)-oxazolo[5,4-d]pyrimidin-2-yl]-phenol], 98%; in that of `CCOc1nc(Oc2ccccc2F)nc2oc(-c3cc(C)c(OC)c(C)c3)nc12` [Example 46, 7-ethoxy-5-(2-fluoro-phenoxy)-2-(4-methoxy-3,5-dimethyl-phenyl)-oxazolo[5,4-d]pyrimidine], 102%.
Regarding `CCCOc1nc(Oc2cc(C(F)(F)F)ccc2Cl)nc2oc(-c3cccc(C)c3)nc12` [Example 143, 5-(2-chloro-5-trifluoromethyl-phenoxy)-7-propoxy-2-(3-methyl-phenyl)-oxazolo[5,4-d]pyrimidine], the activation at 10 µM turned out to be 52%.
For the compound `CCCOc1nc(Oc2cccc(OCC)c2)nc2oc(-c3cccc(C)c3)nc12` [Example 93, 5-(3-ethoxy-phenoxy)-7-propoxy-2-(3-methyl-phenyl)-oxazolo[5,4-d]pyrimidine], the activation at 10 µM was determined as 60%.
In the case of `CCCOc1nc(Sc2ccccc2)nc2oc(-c3cc(F)ccc3Cl)nc12` [Example 150, 2-(2-chloro-5-fluoro-phenyl)-5-phenylsulfanyl-7-propoxy-oxazolo[5,4-d]pyrimidine] it was 92%; in that of `CCCOc1nc(Oc2cc(F)cc(Cl)c2)nc2oc(-c3cccc(C)c3)nc12` [Example 138, 5-(3-chloro-5-fluoro-phenoxy)-7-propoxy-2-(3-methyl-phenyl)-oxazolo[5,4-d]pyrimidine], 97%.
For `C=CCCCOc1nc(OCC2CC2)c2nc(-c3cccc(C)c3)oc2n1` [Example 16, 7-cyclopropylmethoxy-5-pent-4-enyloxy-2-(3-methyl-phenyl)-oxazolo[5,4-d]pyrimidine], the activation at 10 µM stood at 83%.
In the case of `CCCOc1nc(Oc2cc(F)ccc2F)nc2oc(-c3cccc(C)c3)nc12` [Example 94, 5-(2,5-difluoro-phenoxy)-7-propoxy-2-(3-methyl-phenyl)-oxazolo[5,4-d]pyrimidine] it was 122%; in that of `CCCOc1nc(Oc2cc(C)nn2C)nc2oc(-c3cccc(F)c3)nc12` [Example 24, 5-(2,5-dimethyl-2H-pyrazol-3-yloxy)-2-(3-fluoro-phenyl)-7-propoxy-oxazolo[5,4-d]pyrimidine], 99%.
In the case of `CCCOc1nc(Oc2ccc(Cl)cc2Cl)nc2oc(-c3cccc(C)c3)nc12` [Example 119, 5-(2,4-dichloro-phenoxy)-7-propoxy-2-(3-methyl-phenyl)-oxazolo[5,4-d]pyrimidine] it was 116%; in that of `CCCOc1nc(Oc2cccc3c2OC(C)(C)C3)nc2oc(-c3cccc(C)c3)nc12` [Example 83, 5-(2,2-dimethyl-2,3-dihydro-benzofuran-7-yloxy)-7-propoxy-2-(3-methyl-phenyl)-oxazolo[5,4-d]pyrimidine], 63%.
With `CCCOc1nc(Oc2ccc(C)c(F)c2)nc2oc(-c3cccc(F)c3)nc12` [Example 81, 5-(3-fluoro-4-methyl-phenoxy)-2-(3-fluoro-phenyl)-7-propoxy-oxazolo[5,4-d]pyrimidine], the activation at 10 µM stood at 89%.
In the case of `CCOc1nc(Oc2ccccc2F)nc2oc(-c3ccc[n+]([O-])c3)nc12` [Example 7, 7-Ethoxy-5-(2-fluoro-phenoxy)-2-(1-oxy-pyridin-3-yl)-oxazolo[5,4-d]pyrimidine] it was 116%.
In the case of `CCCOc1nc(Oc2cc(Cl)ccc2Cl)nc2oc(-c3cccc(C)c3)nc12` [Example 120, 5-(2,5-dichloro-phenoxy)-7-propoxy-2-(3-methyl-phenyl)-oxazolo[5,4-d]pyrimidine] it was 86%; in that of `CCCOc1nc(Oc2ccc(C)cc2OC)nc2oc(-c3cccc(C)c3)nc12` [Example 135, 5-(2-methoxy-4-methyl-phenoxy)-7-propoxy-2-(3-methyl-phenyl)-oxazolo[5,4-d]pyrimidine], 1%.
In the case of `CCCOc1nc(OC2CCC(C)CC2)nc2oc(-c3cccc(C)c3)nc12` (centres unmarked) [Example 70, 5-(4-methyl-cyclohexyloxy)-7-propoxy-2-(3-methyl-phenyl)-oxazolo[5,4-d]pyrimidine] it was 77%; in that of `CCCOc1nc(Oc2cccc(N(C)C)c2)nc2oc(-c3cccc(C)c3)nc12` [Example 131, dimethyl-[3-(7-propoxy-2-(3-methyl-phenyl)-oxazolo[5,4-d]pyrimidin-5-yloxy)-phenyl]-amine], 51%; in that of `CCCOc1nc(Oc2cccc(C#N)c2)nc2oc(-c3cccc(C)c3)nc12` [Example 87, 3-(7-propoxy-2-(3-methyl-phenyL)-oxazolo[5,4-d]pyrimidin-5-yloxy)-benzonitrile], 93%.
Regarding `CCCOc1nc(OC2CCCCC2)nc2oc(-c3cccc(F)c3)nc12` [Example 62, 5-cyclohexyloxy-2-(3-fluoro-phenyl)-7-propoxy-oxazolo[5,4-d]pyrimidine], the activation at 10 µM amounted to 111%.
In the case of `CCCOc1nc(Oc2ccc(CC)cc2)nc2oc(-c3cccc(C)c3)nc12` [Example 122, 5-(4-ethyl-phenoxy)-7-propoxy-2-(3-methyl-phenyl)-oxazolo[5,4-d]pyrimidine] it was 65%; in that of `CCCOc1nc(Oc2ccc(F)c(C)c2)nc2oc(-c3cccc(C)c3)nc12` [Example 130, 5-(4-fluoro-3-methyl-phenoxy)-7-propoxy-2-(3-methyl-phenyl)-oxazolo[5,4-d]pyrimidine], 107%; in that of `CCCOc1nc(Oc2ccc(OC)c(OC)c2)nc2oc(-c3cccc(C)c3)nc12` [Example 136, 5-(3,4-dimethoxy-phenoxy)-7-propoxy-2-(3-methyl-phenyl)-oxazolo[5,4-d]pyrimidine], 91%.
As to `CCCOc1nc(Oc2ccc(C#N)c(F)c2)nc2oc(-c3cccc(C)c3)nc12` [Example 134, 2-fluoro-4-(7-propoxy-2-(3-methyl-phenyl)-oxazolo[5,4-d]pyrimidin-5-yloxy)-benzonitrile], the activation at 10 µM is 104%.
In the case of `CCCOc1nc(OC2CCC(C(F)(F)F)CC2)nc2oc(-c3cc(F)ccc3Cl)nc12` (centres unmarked) [Example 154, 2-(2-chloro-5-fluoro-phenyl)-7-propoxy-5-(4-trifluoromethyl-cyclohexyloxy)-oxazolo[5,4-d]pyrimidine] it was 87%; in that of `CCCOc1nc(Oc2cccc(SC(F)(F)F)c2)nc2oc(-c3cccc(C)c3)nc12` [Example 116, 7-propoxy-2-(3-methyl-phenyl)-5-(3-trifluoromethylsulfanyl-phenoxy)-oxazolo[5,4-d]pyrimidine], 70%.
Take `CCOc1nc(Sc2ccc(F)c(F)c2)nc2oc(-c3cccc(C)c3)nc12` [Example 12, 5-(3,4-difluoro-phenylsulfanyl)-7-ethoxy-2-(3-methyl-phenyl)-oxazolo[5,4-d]pyrimidine]: the activation at 10 µM stood at 84%.
